Measurements reported in PubChem BioAssay (NCI).
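Step 1: Grow cells in 96-well plates. Step 2: Expose to compound for 48 hours at 5 concentrations. Step 3: Interpolate endpoints linearly; if unreached, use highest concentration. GI50 is the concentration that inhibits growth by half. The concentration for full growth arrest is given as TGI.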

Legend:
Test in all cases: growth of human tumour cells (NCI), 48 h
[1] = test system: MDA-MB-231 breast
[2] = test system: BT-549 breast
[3] = test system: SW-620 colon
[4] = test system: MCF7 breast
[5] = test system: SNB-75 CNS
[6] = test system: NCI-H522 lung
[7] = test system: OVCAR-3 ovarian
[8] = test system: HCT-116 colon
[9] = test system: PC-3 prostate
[10] = test system: CAKI-1 renal
[11] = test system: DU-145 prostate
[12] = test system: LOX IMVI melanoma
[13] = test system: U251 CNS
[14] = test system: RPMI-8226 leukemia
[15] = test system: HOP-92 NSCLC
[16] = test system: MDA-MB-435
[17] = test system: EKVX NSCLC
[18] = test system: SN12C renal
[19] = test system: MOLT-4 leukemia

Compound	TGI [1] [µM]	TGI [2] [µM]	TGI [3] [µM]	TGI [4] [µM]	TGI [5] [µM]	TGI [6] [µM]	TGI [7] [µM]	TGI [8] [µM]	TGI [9] [µM]	TGI [10] [µM]	TGI [11] [µM]	TGI [12] [µM]	TGI [13] [µM]	TGI [14] [µM]	TGI [15] [µM]	TGI [16] [µM]	TGI [17] [µM]	TGI [18] [µM]	TGI [19] [µM]	GI50 [3] [µM]
O=S(=O)(O)c1ccc(N=Nc2ccc3c(S(=O)(=O)O)cccc3c2O)c2ccccc12	> 100	> 100	> 100	> 100	> 100	> 100	> 100	> 100	> 100	> 100	> 100	> 100	> 100	> 100	> 100	> 100	> 100	> 100		
OC(CNc1ccccn1)c1ccccc1 (centres undefined)	> 100	> 100	> 100	> 100	> 100	> 100	> 100	> 100	> 100	> 100	> 100	> 100	> 100	> 100	> 100	> 100	> 100	> 100	> 100	
Nc1cc([N+](=O)[O-])ccc1C(=O)N1CCC[C@H]1CO	> 100	> 100	> 100	> 100	> 100	> 100		> 100	> 100	> 100	> 100	> 100	> 100	> 100	> 100	> 100	> 100	> 100	> 100	
N#Cc1c(-c2ccc(Cl)cc2)c2c(n(C3OC(CO)C(O)C(O)C3O)c1=S)CCCC2 (centres undefined)	> 100	> 100	> 100	> 100	> 100	> 100	> 100	> 100	> 100	> 100	> 100	> 100	> 100	> 100	> 100	> 100	> 100	> 100	87.1	
Cc1c(N2C(=O)C(Cl)C2/C=C/c2ccccc2)c(=O)n(-c2ccccc2)n1C (centres undefined)	72.8	> 100	82.1	87.5	87.3	34.5	> 100	34.8	> 100	> 100	> 100	34.5	21.1	34.7	50.2	28.1	34.4	47	50	
NC(=Nc1ccccc1Cl)c1ccccc1N	> 100	> 100	> 100	> 100	> 100	> 100	> 100	> 100	> 100	> 100	> 100	> 100	> 100	> 100	86.5	> 100	> 100		> 100	
O=c1oc2ccccc2c(Nc2ccc3c(c2)Sc2ccccc2O3)c1[N+](=O)[O-]	47.9	85.4		43	58.3	48	47.5	> 100	38.9	> 100	> 100	> 100	41.7	37.8	71.2	> 100	90.6	> 100		
COC(=O)C1=C(OC(=O)/C(=C/c2ccccc2)c2ccc(Cl)cc2Cl)C(C(=O)OC)[C@@]2(O)[C@@H](C(=O)OC)[C@H](C)C[C@@H]1[C@@H]2C(=O)OC (some centres undefined)	> 100	> 100	> 100	> 100	> 100	> 100	> 100	> 100	> 100	> 100	> 100	> 100	> 100	> 100	> 100	> 100	> 100	> 100	> 100	
Cc1cc(C)nc(NS(=O)(=O)c2ccc(Nc3c4ccccc4nc4ccc(C(=O)Nc5ccc(S(N)(=O)=O)cc5)cc34)cc2)n1	52.6	73.5	> 100	> 100	> 100	> 100	> 100	> 100	> 100	> 100	> 100	> 100	> 100	> 100	> 100	> 100	> 100	> 100	> 100	
O=C1OC(CCCN2CCCCC2)(c2ccccc2)CC12CCCC2 (centres undefined)	> 100	> 100	> 100	> 100	> 100	> 100	> 100	> 100	> 100	> 100	> 100	> 100	> 100	> 100	> 90.8	> 100	> 100	> 100	> 100	
CCOC(=O)c1sc(=S)n(-c2ccc(Cl)cc2)c1-n1cc(-c2ccccc2)c(C#N)c1N	60.1	48.1	> 100	> 100	53.6	14.5	32.6	> 100	27	> 100	21.2	> 100	32.7	> 100	31.2	> 100	94.7	69.7	> 100	
O=C(NC1=C(Cl)C(=O)c2ccccc2C1=O)c1ccccc1	> 100	44.4	33.4	39.2	> 100	52.3	42.7	32.2	> 100		> 100		81.1	> 100	39.9	47.6	> 100	> 100	58.8	
C#CCn1c(=O)c(I)cn(/C(=C/C(=O)OCC)C(=O)OCC)c1=O	29.5	26.2	4	6.16	31.2	2.37	3.37	3.59	11	3.38	23.9	> 48.5	32.1	2.33	3.37	19.8	10.2	32.3	1.9	
Cc1ccc(C(=O)N/N=C(\N=Nc2cccc([N+](=O)[O-])c2)c2ccc(N(CCC#N)CCC#N)cc2C)cc1	> 79.2	> 78.5	> 100	> 68.1	74.1	> 100	6.71	> 74.8	> 100	> 100	> 100	> 100	> 100	> 100	> 100	54.3	> 69.4	> 100	> 82.6	
COc1ccc2c(c1)/C(=C\c1c(Cl)[nH]c3cc(C)c(OC)cc13)C(=O)N2	13.7	7.95	> 40.1	16.7	4.9	6.78	1.71	6.36	8.27	20.4	5.98	8.45	5.55	27.6	22.4	0.596	16.5	10.7	13.7	
CCOC(=O)/C=C(\C(=O)OCC)n1cc(C)c(=O)n(Cc2cn(CCCCOC(C)=O)nn2)c1=O	34.6	23.1	31.8	24.8	30.3	3.01	31.5	27.6	36.2	10.4	37.2	23.1	37	21.7	4.7	28.6	24.2	> 56.7	11.6	5
CC(C)CCNC(=O)c1ccc(CNC(=O)/C=C/c2cccc(Oc3ccccc3)c2)cc1	77.5	> 100	> 100	> 100	> 100	> 100	93	> 100	> 100	> 100	> 100	> 100	> 100	> 100	> 100	41.6	> 100	> 100	> 100	
O=C(O)c1c2c(cc3c1CC(Cc1ccccc1)C3=O)CCC2 (centres undefined)	> 100	> 100	> 100	> 100	> 100	> 100	> 100	> 100	> 100	> 100	> 100	> 100	> 100	> 100	> 100	> 100	> 100	> 100	> 100	
Cc1c(-c2ccccc2)cc(O)c2nc3ccccc3n12	> 100	> 100	> 100	> 100	> 100	> 100	> 100		> 100	> 100	> 100	> 100	> 100	> 100	> 100	> 100	> 100	> 100	> 100	
